Test results as given in paper PMC3885398, “Evaluation of the Antitumor Effects of BPR1J-340, a Potent and Selective FLT3 Inhibitor, Alone or in Combination with an HDAC Inhibitor, Vorinostat, in AML Cancer” (PLoS ONE, 2014).

Assays:
[1] = target: T1, FLT3 (wild-type, residues Y567-S993) (Homo sapiens, UniProt P36888); assay: FLT3 Kinase-Glo kinase assay; assay type: biochemical
T1 construct: FLT3 (residues Y567-S993); made in house
Procedure: All inhibitors were dissolved in dimethylsulfoxide (DMSO) at a stock concentration of 10 mM. […] The preparation of recombinant proteins, FLT3 (residues Y567-S993), VEGFR1 (residues R781-I1338) and VEGFR2 (residues V789-V1356), for biochemical kinase assay was described previously [29].
The FLT3 and VEGFR1/2 Kinase-Glo kinase assays were performed as reported by our earlier study [30].

[2] = test system: MOLM-13 cells; assay: Apoptosis induction, caspase-3 and PARP cleavage by Western blot; assay type: cell-based, human; settings: MOLM-13, 10 nM, 24 hours
Procedure: (§1) Cells were lysed in lysis buffer (50 mM Tris, pH 8.0, 150 mM NaCl, 1% Triton X-100, 0.5% sodium deoxycholate, 0.1% SDS, 1 mM sodium orthovanadate, 1 mM PMSF, and 1 mM DTT). Protein lysates were resolved by SDS-PAGE and transferred onto a polyvinylidene difluoride (PVDF) membrane (Millipore, Bedford, MA, USA). The membranes were immunoblotted with appropriate antibodies and detected using the SuperSignal reagent (Pierce, Rockford, IL, USA) followed by exposure to X-ray film.
(§2) As the inhibition of FLT3 signaling results in a loss of growth potential and an induction of apoptosis in FLT3-ITD expressing cells, the effects of BPR1J-340 on cell apoptotic response in FLT3-ITD^+ cells was investigated. The MOLM-13 and MV4;11 cells were treated with BPR1J-340 at different concentrations for 24 hours and analyzed for the induction of apoptosis using active caspase-3 and cleaved PARP (poly-ADP-ribose polymerase) analysis.
(§3) Figure 3 BPR1J-340 induces apoptosis in MOLM-13 and MV4;11 cells. […] MOLM-13 (A) and MV4;11 (B) cells were treated with BPR1J-340 at the indicated concentrations for 24 hours, and the cell lysates were then subjected to Western blot analysis using antibodies against caspase-3 and PARP (poly-ADP-ribose polymerase). (full length caspase-3 (FL-caspase-3), cleavage of caspase-3 (CL-caspase-3), full length poly(ADP-ribose) polymerase (FL-PARP), cleavage of PARP (CL-PARP)).

[3] = test system: MV4;11 cells; assay: as above; assay type: cell-based, human; settings: MV4;11, 10 nM, 24 hours
Procedure: as §1, §2, §3

[4] = target: FLT4 (VEGFR3) (Homo sapiens, UniProt P35916); assay: Invitrogen SelectScreen kinase profiling; assay type: biochemical; parameters: purchased Invitrogen SelectScreen; settings: 100 nM
Procedure: (§4) The FLT3 and VEGFR1/2 Kinase-Glo kinase assays were performed as reported by our earlier study. The VEGFR3 activity analysis was conducted using the same protocol described in the VEGFR1/2 assay. The kinase inhibition profiling and inhibitory activity of FLT3-D835Y, CSF1R, and TRKA were determined by Invitrogen SelectScreen® kinase profiling service (Carlsbad, California, USA).
(§5) BPR1J-340, a urea-substituted 3-phenyl-1H-5-pyrazolylamine-based compound, was designed through chemical modification of sulfonamide series of derivatives (BPR1J-097 series) by a structure-activity relationship (SAR) study (Fig. 1), [32]. For kinase inhibition specificity screening, BPR1J-340 was tested against 59 protein kinases covering the major oncogenic kinases of human protein kinome. […] In addition, BPR1J-340 inhibited TRKA, which is associated with the growth and metastasis of breast cancers, with an IC50 value of 8 nM. Given the high similarity of the ATP binding pockets of FLT3 and the Aurora kinases, the inhibitory activity toward Aurora A and Aurora B were measured. […] Taken together, BPRJ-340 is a selective kinase inhibitor with in vitro activity against FLT3, VEGFR2, VEGFR3 and TRKA receptor tyrosine kinases.

[5] = target: KDR (VEGFR2) (Homo sapiens, UniProt P35968); assay: Invitrogen SelectScreen kinase profiling; assay type: biochemical; parameters: purchased Invitrogen SelectScreen; settings: 100 nM
Procedure: as §4, §5

T1 sequence (P36888 567-993): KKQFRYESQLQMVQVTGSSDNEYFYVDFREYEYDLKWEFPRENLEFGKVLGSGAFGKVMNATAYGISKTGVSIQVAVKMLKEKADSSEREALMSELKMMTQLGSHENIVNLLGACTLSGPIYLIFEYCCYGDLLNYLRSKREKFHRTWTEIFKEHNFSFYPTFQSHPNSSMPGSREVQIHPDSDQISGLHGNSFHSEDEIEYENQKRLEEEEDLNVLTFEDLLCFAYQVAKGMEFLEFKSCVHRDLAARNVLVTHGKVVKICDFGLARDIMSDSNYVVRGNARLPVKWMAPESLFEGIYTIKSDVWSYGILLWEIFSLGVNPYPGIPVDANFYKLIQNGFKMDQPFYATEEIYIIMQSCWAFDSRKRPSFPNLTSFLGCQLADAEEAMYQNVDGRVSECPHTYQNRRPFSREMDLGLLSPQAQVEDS
Sequence of KDR (VEGFR2) (P35968 20-1356): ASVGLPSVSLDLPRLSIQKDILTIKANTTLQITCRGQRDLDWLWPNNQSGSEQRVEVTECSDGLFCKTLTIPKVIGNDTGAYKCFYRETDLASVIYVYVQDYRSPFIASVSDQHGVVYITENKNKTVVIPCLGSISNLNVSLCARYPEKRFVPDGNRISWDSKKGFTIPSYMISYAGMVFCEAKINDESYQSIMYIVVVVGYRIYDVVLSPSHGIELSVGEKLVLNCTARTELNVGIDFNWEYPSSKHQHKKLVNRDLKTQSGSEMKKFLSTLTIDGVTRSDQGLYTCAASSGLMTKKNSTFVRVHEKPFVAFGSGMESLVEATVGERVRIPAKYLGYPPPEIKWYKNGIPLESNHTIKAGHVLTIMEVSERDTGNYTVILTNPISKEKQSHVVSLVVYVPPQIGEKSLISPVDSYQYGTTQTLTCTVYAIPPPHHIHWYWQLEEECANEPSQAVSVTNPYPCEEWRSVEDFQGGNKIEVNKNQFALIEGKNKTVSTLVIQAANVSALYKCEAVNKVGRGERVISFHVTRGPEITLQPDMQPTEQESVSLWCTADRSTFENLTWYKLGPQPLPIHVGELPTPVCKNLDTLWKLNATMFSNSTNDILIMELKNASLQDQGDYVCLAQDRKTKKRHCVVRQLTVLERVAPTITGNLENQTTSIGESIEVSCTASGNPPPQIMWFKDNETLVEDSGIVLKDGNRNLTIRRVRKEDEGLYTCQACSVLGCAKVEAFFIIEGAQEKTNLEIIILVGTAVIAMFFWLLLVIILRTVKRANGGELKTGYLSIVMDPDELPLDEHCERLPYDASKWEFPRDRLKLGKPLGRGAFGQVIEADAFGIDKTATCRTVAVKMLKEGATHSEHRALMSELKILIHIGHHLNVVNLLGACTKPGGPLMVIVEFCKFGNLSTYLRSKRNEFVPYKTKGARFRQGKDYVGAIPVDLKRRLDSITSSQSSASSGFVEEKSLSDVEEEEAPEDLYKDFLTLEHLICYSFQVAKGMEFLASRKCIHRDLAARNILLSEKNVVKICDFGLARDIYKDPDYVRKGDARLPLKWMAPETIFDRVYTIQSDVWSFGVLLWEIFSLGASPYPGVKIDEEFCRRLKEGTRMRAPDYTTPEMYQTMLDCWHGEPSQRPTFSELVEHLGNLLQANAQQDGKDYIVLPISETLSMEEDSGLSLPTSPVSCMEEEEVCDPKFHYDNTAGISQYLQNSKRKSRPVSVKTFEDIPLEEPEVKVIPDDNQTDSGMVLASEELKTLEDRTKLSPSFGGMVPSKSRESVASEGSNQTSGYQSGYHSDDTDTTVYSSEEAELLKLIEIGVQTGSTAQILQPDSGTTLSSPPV
Sequence of FLT4 (VEGFR3) (P35916 25-1363): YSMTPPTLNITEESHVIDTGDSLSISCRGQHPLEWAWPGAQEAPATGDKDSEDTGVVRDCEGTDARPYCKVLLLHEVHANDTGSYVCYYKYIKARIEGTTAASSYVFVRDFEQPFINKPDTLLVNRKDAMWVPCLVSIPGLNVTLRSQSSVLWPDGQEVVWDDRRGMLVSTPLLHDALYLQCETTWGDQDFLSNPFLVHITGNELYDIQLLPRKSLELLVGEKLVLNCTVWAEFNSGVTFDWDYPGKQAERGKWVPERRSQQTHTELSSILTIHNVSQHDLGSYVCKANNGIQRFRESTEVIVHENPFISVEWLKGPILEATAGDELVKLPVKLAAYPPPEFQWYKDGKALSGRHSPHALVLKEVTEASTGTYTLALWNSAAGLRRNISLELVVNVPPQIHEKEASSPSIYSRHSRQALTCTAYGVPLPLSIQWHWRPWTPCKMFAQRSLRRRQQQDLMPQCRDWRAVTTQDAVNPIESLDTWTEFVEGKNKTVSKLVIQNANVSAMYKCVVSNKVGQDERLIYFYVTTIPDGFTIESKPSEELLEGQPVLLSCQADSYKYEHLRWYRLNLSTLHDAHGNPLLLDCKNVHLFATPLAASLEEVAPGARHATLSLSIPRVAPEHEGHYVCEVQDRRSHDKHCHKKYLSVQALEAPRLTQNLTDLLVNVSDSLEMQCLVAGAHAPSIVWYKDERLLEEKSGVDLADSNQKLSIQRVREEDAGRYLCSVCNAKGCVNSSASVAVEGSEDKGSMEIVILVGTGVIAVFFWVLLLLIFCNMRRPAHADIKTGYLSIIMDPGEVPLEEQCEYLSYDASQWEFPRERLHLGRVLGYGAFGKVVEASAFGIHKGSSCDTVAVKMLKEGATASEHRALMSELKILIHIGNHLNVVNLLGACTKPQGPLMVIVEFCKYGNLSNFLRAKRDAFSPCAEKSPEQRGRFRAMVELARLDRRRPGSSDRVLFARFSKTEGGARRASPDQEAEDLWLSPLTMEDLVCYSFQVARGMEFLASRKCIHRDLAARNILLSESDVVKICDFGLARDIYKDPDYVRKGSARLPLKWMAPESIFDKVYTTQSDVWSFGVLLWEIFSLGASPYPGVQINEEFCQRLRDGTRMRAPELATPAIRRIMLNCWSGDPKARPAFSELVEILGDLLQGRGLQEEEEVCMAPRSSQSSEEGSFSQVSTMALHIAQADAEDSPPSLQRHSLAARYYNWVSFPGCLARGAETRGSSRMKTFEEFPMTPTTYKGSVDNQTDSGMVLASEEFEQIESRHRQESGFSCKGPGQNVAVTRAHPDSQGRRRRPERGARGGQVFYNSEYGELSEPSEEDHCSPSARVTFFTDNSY

**Q.** With `CCc1cc(NC(=O)NCc2ccc(-c3cc(NC(=O)c4ccc(CN5CCN(C)CC5)cc4)[nH]n3)cc2)no1` [BPR1J-340, N1-(3-4-[([(5-ethyl-3-isoxazolyl)amino]carbonylamino)methyl]phenyl-1H-5-pyrazolyl)-4-[(4-methylpiperazino)methyl]benzamide] as the compound, how does the IC50 [1] read?
**A.** 29 ± 5 nM

**Q.** What about the “cleavage of caspase-3 and PARP (apoptosis)” value [2] of the same compound?
**A.** significant cleavage

**Q.** What about the “cleavage of caspase-3 and PARP (apoptosis)” value [3] of the same compound?
**A.** significant cleavage

**Q.** What about the inhibition at 0.1 µM [4] of the same compound?
**A.** 45%

**Q.** And the inhibition at 0.1 µM [5]?
**A.** 69%
